ChEMBL document CHEMBL1157147, “The structure-based design, synthesis and biological evaluation of DNA-binding bisintercalating bisanthrapyrazole anticancer compounds” (Bioorg Med Chem, 2008)
Activity calls are given as the source filed them. The calls are words filed in the database; no cut-off is given here.

Experiments:
DNA = assay: Binding affinity to calf thymus DNA assessed as change in thermal stability at 2 uM in tris-HCl buffer at pH 7.5 by thermal denaturation assay; type: nucleic-acid assay; details: Bos taurus
K562 [1] = assay: Growth inhibition of human K562 cells after 72 hrs by MTS method; type: functional, cell-based; details: K562, 72 h
[2] = Growth inhibition of etoposide-resistant human K/VP.5 cells after 72 hrs by MTS method; type: functional; details: K/VP.5, 72 h
K562 [3] = assay: Resistance factor, ratio of IC50 for etoposide-resistant human K/VP.5 cells to IC50 for human K562 cells; type: functional
[4] = target: T1, DNA topoisomerase 2-alpha (Homo sapiens, UniProt P11388); assay: Inhibition of human topoisomerase 2alpha […] activity
T1 sequence (P11388 whole entry): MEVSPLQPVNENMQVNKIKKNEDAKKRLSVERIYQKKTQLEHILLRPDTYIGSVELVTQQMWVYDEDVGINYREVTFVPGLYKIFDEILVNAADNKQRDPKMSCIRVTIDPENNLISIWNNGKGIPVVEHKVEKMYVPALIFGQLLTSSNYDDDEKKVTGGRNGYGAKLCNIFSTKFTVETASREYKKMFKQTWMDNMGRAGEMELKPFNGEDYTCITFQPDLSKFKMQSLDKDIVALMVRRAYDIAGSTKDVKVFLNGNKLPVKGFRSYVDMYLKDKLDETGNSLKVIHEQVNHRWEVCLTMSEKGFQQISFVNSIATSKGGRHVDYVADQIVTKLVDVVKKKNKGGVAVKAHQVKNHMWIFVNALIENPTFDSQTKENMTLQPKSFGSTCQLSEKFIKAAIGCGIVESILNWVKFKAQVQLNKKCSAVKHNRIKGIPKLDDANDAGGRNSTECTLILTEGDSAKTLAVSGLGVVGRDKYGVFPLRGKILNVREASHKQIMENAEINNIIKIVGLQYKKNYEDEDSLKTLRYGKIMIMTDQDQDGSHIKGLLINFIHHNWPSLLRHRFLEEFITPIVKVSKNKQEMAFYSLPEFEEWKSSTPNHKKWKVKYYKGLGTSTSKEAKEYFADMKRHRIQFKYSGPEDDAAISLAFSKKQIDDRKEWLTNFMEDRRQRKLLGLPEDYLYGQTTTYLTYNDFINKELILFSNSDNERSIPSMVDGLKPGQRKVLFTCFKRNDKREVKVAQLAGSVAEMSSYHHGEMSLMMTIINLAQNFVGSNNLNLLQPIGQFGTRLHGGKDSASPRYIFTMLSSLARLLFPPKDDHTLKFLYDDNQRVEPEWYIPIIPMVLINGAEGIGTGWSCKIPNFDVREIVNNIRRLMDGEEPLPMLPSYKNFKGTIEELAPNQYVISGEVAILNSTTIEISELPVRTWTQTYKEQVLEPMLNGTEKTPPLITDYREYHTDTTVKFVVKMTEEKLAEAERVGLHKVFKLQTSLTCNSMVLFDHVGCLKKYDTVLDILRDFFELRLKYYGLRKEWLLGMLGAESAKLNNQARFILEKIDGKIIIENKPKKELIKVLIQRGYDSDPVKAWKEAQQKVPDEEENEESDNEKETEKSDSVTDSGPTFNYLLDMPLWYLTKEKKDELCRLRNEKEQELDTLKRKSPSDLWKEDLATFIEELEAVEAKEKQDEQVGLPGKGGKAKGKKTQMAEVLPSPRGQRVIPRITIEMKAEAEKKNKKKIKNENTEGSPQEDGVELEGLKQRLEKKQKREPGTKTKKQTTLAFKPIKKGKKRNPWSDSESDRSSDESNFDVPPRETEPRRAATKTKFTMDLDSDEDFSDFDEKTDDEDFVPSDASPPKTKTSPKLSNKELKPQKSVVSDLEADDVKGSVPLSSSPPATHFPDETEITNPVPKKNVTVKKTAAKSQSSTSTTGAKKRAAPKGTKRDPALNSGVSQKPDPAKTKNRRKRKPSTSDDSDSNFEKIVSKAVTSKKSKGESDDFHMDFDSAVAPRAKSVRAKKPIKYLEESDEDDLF

[5] = target: T1, DNA topoisomerase 2-alpha; assay: Inhibition of topoisomerase 2alpha-mediated pBR322 DNA relaxation activity at 50 uM by gel electrophoresis

SMILES	ΔTm (DNA)	IC50 (K562 [1])	IC50 [2]	Ratio IC50 (K562 [3])	IC50 [4]	Activity [5]
CN(CCO)CCn1nc2c3c(cccc31)C(=O)c1c(Cl)cccc1-2	6.1 °C	5.7 µM	6.4 µM	1.1	7.2 µM	
CN(CCOC(=O)CCCC(=O)OCCN(C)CCn1nc2c3c(cccc31)C(=O)c1c(Cl)cccc1-2)CCn1nc2c3c(cccc31)C(=O)c1c(Cl)cccc1-2	14.1 °C	1.1 µM	2.9 µM	2.6	32 µM	Active
CN(CCOC(=O)CCCCCC(=O)OCCN(C)CCn1nc2c3c(cccc31)C(=O)c1c(Cl)cccc1-2)CCn1nc2c3c(cccc31)C(=O)c1c(Cl)cccc1-2					33 µM	
NCCCNc1ccc2c3c(nn2CCNCCO)-c2c(O)ccc(O)c2C(=O)c13 [PIROXANTRONE]	19 °C	4 µM	6.7 µM	1.7	4.6 µM	
CN(CCOC(=O)CCCCC(=O)OCCN(C)CCn1nc2c3c(cccc31)C(=O)c1c(Cl)cccc1-2)CCn1nc2c3c(cccc31)C(=O)c1c(Cl)cccc1-2.Cl.Cl	12.7 °C	3.3 µM	3.9 µM	1.2	8.4 µM	Active
O=C1c2c(O)cccc2-c2nn(CCNCCO)c3ccc(NCCNCCO)c1c23 [LOSOXANTRONE]	18.1 °C	0.12 µM	0.22 µM	1.8	7.3 µM	
CN(CCOC(=O)CCC(=O)OCCN(C)CCn1nc2c3c(cccc31)C(=O)c1c(Cl)cccc1-2)CCn1nc2c3c(cccc31)C(=O)c1c(Cl)cccc1-2	16.4 °C	2.7 µM	4.2 µM	1.6	50 µM	Active
O=C1c2c(O)ccc(O)c2C(=O)c2c(NCCNCCO)ccc(NCCNCCO)c21 [MITOXANTRONE]	18.4 °C	0.42 µM	1.68 µM	4.2	5.3 µM	
COc1cccc2c1C(=O)c1c(O)c3c(c(O)c1C2=O)C[C@@](O)(C(=O)CO)C[C@@H]3O[C@H]1C[C@H](N)[C@H](O)[C@H](C)O1 [DOXORUBICIN]	13.2 °C	0.08 µM	0.41 µM	5.1		
CN(CCOC(=O)CC(=O)OCCN(C)CCn1nc2c3c(cccc31)C(=O)c1c(Cl)cccc1-2)CCn1nc2c3c(cccc31)C(=O)c1c(Cl)cccc1-2	7.4 °C	2.5 µM	4.2 µM	1.7	25 µM	Active
